Data as given in ChEMBL document CHEMBL5465560, “Selectivity Literature for EUbOPEN Chemogenomic Library” (2024).

Key:
[1] = biological target: T1, PAN2-PAN3 deadenylation complex subunit PAN3 (Homo sapiens) (UniProt Q58A45); experiment: Selectivity interaction (Kinase panel (KiNativ target engagement assay in Jurkat cells)) EUB0001635a PAN3; assay type: cell-based; details: Selectivity number of off-targets 0.0, Selectivity number of targets 233.0, Source Knowledge https://www.sciencedirect.com/science/article/pii/S2451945619300674?via%3Dihub, at 1 µM
T1 sequence (whole entry): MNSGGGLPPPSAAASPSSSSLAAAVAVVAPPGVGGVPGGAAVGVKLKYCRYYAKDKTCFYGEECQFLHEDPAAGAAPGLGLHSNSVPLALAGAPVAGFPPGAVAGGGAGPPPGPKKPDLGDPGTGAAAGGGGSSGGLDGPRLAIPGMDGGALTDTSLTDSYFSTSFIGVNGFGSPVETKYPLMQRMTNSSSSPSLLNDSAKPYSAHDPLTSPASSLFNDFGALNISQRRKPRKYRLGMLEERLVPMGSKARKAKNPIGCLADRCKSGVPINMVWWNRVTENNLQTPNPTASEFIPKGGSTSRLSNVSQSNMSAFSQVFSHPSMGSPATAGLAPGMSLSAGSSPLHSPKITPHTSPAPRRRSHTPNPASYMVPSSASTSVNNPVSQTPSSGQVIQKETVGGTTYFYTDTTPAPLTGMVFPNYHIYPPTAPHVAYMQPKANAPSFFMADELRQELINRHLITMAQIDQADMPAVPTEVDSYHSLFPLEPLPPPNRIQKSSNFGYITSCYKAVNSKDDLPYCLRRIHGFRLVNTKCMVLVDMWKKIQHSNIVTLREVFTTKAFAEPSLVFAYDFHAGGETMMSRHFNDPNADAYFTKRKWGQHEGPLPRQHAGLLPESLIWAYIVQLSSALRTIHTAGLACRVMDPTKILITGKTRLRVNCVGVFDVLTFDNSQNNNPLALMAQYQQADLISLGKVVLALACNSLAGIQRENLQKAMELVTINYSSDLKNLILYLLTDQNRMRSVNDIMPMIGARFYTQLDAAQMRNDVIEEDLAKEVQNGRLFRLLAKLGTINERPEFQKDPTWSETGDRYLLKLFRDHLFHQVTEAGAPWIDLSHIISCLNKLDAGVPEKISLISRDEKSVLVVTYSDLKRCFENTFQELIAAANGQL

[2] = biological target: Cyclin-dependent kinase 14 (Homo sapiens) (UniProt O94921); experiment: Selectivity interaction (ActivX KiNativ screen (kinase selectivity in THP-1 cell lysates)) EUB0000639a CDK14; assay type: subcellular; details: lysate, at 0.2 µM
[3] = biological target: Serine/threonine-protein kinase MRCK alpha (Homo sapiens) (UniProt Q5VT25); experiment: Selectivity interaction (KinomeScan (DiscoverX)) EUB0000092b CDC42BPA; details: at 10 µM
[4] = biological target: Ribosomal protein S6 kinase alpha-3 (Homo sapiens, UniProt P51812); experiment: Selectivity interaction (Upstate Kinase Profiler service (Millipore)) EUB0000056c RPS6KA3; details: at 1 µM
Aurora kinase B = Aurora kinase B (Homo sapiens, UniProt Q96GD4); experiment: Selectivity interaction (Panel of kinases, GPCRs, ion channels and transporters (enzymatic assay)) EUB0000223bCl AURKB
[5] = biological target: T2, Tyrosine-protein kinase receptor TYRO3 (Homo sapiens) (UniProt Q06418); experiment: Selectivity interaction (Kinase panel (Z-LYTE Assay)) EUB0001632a TYRO3; details: at 10 µM
T2 sequence (whole entry): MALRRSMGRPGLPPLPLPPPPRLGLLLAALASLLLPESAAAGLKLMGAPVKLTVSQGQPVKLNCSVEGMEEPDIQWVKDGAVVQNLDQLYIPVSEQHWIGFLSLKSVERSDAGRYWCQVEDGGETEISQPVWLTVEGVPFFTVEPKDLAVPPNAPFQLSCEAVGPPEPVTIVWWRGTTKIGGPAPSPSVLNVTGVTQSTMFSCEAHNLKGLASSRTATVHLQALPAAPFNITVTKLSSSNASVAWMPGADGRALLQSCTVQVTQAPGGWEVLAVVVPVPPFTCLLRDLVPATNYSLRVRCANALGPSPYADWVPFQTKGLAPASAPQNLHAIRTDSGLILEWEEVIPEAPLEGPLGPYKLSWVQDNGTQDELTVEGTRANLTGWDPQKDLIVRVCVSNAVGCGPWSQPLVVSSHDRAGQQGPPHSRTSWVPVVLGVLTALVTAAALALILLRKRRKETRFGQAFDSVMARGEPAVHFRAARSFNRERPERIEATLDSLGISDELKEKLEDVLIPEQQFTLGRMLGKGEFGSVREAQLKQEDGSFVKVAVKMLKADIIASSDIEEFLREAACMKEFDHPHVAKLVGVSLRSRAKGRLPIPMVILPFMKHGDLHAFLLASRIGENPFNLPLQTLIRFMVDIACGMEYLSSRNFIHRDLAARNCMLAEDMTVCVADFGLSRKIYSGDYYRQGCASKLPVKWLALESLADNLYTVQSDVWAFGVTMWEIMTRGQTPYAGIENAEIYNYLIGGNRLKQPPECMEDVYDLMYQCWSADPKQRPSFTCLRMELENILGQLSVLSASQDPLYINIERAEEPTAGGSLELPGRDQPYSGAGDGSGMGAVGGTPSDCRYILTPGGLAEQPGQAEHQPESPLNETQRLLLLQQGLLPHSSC

[6] = biological target: Dual specificity protein kinase CLK4 (Homo sapiens, UniProt Q9HAZ1); experiment: Selectivity interaction (LanthaScreen Eu Kinase Binding Assay) EUB0001632a CLK4; details: at 10 µM
Dual specificity protein kinase CLK4, sequence (Q9HAZ1 whole entry, looked up): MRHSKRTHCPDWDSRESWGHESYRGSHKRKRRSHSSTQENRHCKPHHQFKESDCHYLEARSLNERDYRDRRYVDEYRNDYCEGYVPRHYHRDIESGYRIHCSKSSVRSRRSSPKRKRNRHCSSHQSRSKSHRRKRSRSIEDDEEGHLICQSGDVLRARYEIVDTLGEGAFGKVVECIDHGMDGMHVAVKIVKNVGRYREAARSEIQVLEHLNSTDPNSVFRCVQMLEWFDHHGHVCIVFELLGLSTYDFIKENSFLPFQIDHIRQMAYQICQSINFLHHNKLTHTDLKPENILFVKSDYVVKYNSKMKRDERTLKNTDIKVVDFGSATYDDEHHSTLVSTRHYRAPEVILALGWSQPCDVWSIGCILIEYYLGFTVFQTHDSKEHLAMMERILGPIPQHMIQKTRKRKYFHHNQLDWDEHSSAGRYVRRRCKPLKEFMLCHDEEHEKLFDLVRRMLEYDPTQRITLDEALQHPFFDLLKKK

Aurora kinase B, sequence (Q96GD4 whole entry): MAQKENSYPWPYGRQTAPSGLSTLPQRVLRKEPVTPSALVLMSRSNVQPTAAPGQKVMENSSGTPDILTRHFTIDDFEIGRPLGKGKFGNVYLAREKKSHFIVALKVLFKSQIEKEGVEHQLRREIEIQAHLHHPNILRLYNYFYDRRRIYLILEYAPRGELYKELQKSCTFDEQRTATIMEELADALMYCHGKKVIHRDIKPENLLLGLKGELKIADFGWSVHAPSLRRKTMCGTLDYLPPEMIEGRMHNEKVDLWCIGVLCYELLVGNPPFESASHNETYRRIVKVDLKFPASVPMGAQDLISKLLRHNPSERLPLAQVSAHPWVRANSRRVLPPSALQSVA
Serine/threonine-protein kinase MRCK alpha (Homo sapiens), sequence (Q5VT25 whole entry): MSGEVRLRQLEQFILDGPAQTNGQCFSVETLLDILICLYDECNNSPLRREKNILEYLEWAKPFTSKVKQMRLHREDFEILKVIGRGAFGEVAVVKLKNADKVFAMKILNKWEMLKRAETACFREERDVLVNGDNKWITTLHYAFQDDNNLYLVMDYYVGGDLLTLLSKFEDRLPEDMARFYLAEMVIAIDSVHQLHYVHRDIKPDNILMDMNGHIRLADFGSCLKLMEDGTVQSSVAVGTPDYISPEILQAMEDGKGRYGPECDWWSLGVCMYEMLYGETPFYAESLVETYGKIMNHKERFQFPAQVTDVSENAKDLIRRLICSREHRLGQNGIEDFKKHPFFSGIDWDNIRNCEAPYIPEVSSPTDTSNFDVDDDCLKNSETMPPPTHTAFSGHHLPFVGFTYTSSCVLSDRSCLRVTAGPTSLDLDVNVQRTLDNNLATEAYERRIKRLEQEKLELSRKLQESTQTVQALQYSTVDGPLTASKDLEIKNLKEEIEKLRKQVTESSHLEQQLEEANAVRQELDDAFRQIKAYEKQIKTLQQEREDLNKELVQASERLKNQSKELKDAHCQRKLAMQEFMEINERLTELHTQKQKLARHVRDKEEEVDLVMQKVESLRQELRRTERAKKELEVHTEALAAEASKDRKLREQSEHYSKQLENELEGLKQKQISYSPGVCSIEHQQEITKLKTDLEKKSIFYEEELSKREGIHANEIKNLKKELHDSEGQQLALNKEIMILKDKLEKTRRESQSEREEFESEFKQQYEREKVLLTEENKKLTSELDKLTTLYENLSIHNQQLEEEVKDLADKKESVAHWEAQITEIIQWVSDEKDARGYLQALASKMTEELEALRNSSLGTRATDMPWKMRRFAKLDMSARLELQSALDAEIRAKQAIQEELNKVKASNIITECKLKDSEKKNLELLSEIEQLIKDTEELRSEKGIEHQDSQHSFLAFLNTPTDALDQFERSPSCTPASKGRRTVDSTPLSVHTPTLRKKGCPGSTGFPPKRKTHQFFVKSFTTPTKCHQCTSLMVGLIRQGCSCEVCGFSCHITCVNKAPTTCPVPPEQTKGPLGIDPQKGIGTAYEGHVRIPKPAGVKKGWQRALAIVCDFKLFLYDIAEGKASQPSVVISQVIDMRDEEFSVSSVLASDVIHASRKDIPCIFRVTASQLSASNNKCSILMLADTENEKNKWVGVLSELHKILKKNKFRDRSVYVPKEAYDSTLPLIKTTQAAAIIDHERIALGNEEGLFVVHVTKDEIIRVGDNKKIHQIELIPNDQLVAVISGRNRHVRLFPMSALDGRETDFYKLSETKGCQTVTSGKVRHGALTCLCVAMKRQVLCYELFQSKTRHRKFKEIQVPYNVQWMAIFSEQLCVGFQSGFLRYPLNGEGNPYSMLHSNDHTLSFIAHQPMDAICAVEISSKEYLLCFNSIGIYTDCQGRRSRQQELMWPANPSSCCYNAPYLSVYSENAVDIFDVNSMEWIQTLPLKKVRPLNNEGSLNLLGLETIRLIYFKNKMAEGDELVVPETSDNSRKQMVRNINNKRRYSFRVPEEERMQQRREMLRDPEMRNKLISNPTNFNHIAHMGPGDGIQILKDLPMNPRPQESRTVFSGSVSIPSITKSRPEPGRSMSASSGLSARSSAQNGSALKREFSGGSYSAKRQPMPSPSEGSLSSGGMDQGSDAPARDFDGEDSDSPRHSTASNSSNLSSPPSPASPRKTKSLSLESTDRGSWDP
Cyclin-dependent kinase 14 (Homo sapiens), sequence (O94921 whole entry): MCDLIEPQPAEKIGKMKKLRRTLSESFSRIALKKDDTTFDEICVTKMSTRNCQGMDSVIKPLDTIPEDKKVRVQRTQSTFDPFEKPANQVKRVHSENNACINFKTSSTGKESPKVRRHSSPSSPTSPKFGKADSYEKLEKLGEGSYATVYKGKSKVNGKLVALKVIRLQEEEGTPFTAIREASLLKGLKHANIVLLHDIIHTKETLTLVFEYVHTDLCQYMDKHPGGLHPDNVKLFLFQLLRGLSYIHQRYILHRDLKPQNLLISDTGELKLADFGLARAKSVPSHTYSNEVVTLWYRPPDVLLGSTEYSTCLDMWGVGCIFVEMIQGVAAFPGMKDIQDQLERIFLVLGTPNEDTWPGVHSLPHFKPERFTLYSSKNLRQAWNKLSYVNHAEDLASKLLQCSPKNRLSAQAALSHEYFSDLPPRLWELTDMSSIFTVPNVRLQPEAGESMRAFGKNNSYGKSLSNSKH
Ribosomal protein S6 kinase alpha-3, sequence (P51812 whole entry): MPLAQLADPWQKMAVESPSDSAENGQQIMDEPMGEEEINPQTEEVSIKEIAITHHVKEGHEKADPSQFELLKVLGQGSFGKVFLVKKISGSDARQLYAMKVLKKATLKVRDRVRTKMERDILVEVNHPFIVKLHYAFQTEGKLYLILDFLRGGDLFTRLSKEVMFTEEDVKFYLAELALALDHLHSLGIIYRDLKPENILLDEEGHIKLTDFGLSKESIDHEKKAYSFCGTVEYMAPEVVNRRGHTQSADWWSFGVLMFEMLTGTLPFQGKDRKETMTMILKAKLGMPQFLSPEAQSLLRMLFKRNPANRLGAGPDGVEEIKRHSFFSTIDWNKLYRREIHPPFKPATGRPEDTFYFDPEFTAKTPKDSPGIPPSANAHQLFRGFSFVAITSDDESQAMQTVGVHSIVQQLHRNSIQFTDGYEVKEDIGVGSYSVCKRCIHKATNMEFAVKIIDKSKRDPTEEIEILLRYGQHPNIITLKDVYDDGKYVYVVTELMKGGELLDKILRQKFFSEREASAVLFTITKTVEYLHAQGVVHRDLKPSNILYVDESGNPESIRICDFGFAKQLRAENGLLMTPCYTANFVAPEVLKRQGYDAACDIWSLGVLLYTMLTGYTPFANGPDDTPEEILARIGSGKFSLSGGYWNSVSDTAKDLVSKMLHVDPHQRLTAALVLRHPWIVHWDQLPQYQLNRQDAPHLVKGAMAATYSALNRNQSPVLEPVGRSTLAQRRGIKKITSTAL

C=CC(=O)Nc1ccc(C(=O)Nc2[nH]nc3c2CN(C(=O)N[C@H](CN(C)C)c2ccccc2)C3(C)C)cc1
% of engagement [1]: -3.3%

CC[C@@H]1[C@H](F)C(=O)N[C@@H]1COc1nccc2cc(C(N)=O)c(OC)cc12 [ZIMLOVISERTIB]
% of inhibition [2]: -7.5%

CCC(=O)N1CCN(c2ccc(-n3c(=O)ccc4cnc5ccc(-c6cnc7ccccc7c6)cc5c43)cc2C(F)(F)F)CC1
% of control [3]: 0.7%

Cc1ccc(-c2ccc3c(ccc4sc5c(c43)NC[C@@H](C)NC5=O)n2)cn1
% of inhibition [4]: 27%

COc1cc(C(=O)N2CC[C@@H](O)[C@@H](N)C2)cc2nc(-c3cc4ccccc4n3CC3CC3)n(C)c12
pXC50 (Aurora kinase B): < 4.5 M

Cn1cc(-n2cnc3c(NCc4nc5cc(Cl)c(Cl)cc5[nH]4)nc(N4CCOCC4)nc32)cn1
% of control [5]: -1.87% | % of inhibition [6]: 12.3%
